Reference: ChEMBL document CHEMBL3407331, “Discovery of AM-7209, a potent and selective 4-amidobenzoic acid inhibitor of the MDM2-p53 interaction” (J Med Chem, 2014)
One block for each compound: values may come before it. Activity calls are given as the source filed them. No cut-off for these calls is given here.

Legend:
SJSA-1 [1] = experiment: cells; conditions: Homo sapiens, SJSA-1, 16 h
[2] = target: T1, E3 ubiquitin-protein ligase Mdm2 (Homo sapiens, UniProt Q00987)
Hepatocyte = experiment: cells; conditions: Homo sapiens
[3] = target: T1, E3 ubiquitin-protein ligase Mdm2; remark: listed apart in the source
CYP3A4 [4] = target: T2, CYP3A4 (Homo sapiens, UniProt P08684); experiment: Inhibition of CYP3A4 (unknown origin) at 3 uM; format: ADME
T2 sequence (P08684 whole entry): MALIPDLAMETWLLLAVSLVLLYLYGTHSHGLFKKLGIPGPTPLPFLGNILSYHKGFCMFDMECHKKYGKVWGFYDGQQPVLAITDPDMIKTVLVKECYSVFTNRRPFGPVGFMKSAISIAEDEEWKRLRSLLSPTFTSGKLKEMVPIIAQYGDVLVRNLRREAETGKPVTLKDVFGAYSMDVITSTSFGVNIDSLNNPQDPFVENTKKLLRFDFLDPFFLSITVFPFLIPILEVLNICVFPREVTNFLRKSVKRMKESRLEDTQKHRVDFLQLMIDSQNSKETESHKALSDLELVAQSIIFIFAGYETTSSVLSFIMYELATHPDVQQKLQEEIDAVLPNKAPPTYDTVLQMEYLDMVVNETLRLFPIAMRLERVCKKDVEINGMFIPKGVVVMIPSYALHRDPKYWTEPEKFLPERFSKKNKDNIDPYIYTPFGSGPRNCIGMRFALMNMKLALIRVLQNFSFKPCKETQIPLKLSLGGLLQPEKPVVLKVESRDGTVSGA

CYP3A4 [5] = target: T2, CYP3A4; experiment: Time-dependent inhibition of CYP3A4 (unknown origin) assessed as remaining activity at 10 uM after 30 mins; format: ADME; conditions: read-out: Activity
PXR (NR1I2) = target: T3, PXR (NR1I2) (Homo sapiens, UniProt O75469); experiment: Activation of human PXR at 2 uM relative to control; format: ADME; conditions: read-out: Activity
T3 sequence (O75469 whole entry): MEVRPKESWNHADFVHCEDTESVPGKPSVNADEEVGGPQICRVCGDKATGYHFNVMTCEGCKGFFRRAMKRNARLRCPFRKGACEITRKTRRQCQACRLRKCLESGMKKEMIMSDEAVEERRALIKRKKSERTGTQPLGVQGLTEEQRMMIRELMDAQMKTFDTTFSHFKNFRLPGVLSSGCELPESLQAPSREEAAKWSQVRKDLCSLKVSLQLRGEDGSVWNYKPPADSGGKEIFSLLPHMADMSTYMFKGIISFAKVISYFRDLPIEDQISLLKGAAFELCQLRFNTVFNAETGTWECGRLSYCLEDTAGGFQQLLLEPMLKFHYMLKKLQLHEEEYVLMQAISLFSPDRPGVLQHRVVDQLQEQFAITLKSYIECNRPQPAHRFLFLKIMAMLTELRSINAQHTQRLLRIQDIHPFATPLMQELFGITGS

[6] = Clearance in iv dosed dog; format: ADME, organism-based, Canis lupus familiaris; conditions: in vivo
[7] = Drug metabolism in rat hepatocytes assessed as demethylated metabolite M3 formation at 10 uM after 2 hrs by LC/MS analysis; format: ADME, cell-based, Hepatocyte
[8] = Antiproliferative activity against human HCT116 cells expressing p53 wild type after 16 hrs by BrdU proliferation assay; format: functional, cell-based; conditions: HCT-116, 16 h
[9] = Drug metabolism in human hepatocytes assessed as oxidative metabolite M2 formation at 10 uM after 2 hrs by LC/MS analysis; format: ADME, cell-based, Hepatocyte
[10] = Drug metabolism in rat hepatocytes assessed as oxidative metabolite M2 formation at 10 uM after 2 hrs by LC/MS analysis; format: ADME, cell-based, Hepatocyte
Mus musculus = experiment: Toxicity in human SJSA1 cells xenografted athymic nude mouse assessed as body weight loss at 10 to 50 mg/kg, po qd for 4 days; format: organism-based, SJSA-1; parameters: dose 10-50 mg/kg, route oral; conditions: in vivo, 96 h
[11] = Antitumor activity against human HCT116 cells xenografted in athymic nude mouse assessed as tumor growth inhibition at 100 mg/kg, po qd starting on day 10 of tumor implantation; format: functional; conditions: HCT-116, 240 h, read-out: TGI
SJSA-1 [12] = experiment: Antitumor activity against human SJSA1 cells xenografted in athymic nude mouse assessed as complete tumor regression at 25 to 50 mg/kg, po qd for 4 days measured after 30 days; format: functional, organism-based
[13] = target: T1, E3 ubiquitin-protein ligase Mdm2; remark: listed apart in the source
[14] = Drug metabolism in human hepatocytes assessed as demethylated metabolite M3 formation at 10 uM after 2 hrs by LC/MS analysis; format: ADME, cell-based, Hepatocyte
[15] = Drug metabolism in dog hepatocytes assessed as demethylated metabolite M3 formation at 10 uM after 2 hrs by LC/MS analysis; format: ADME, cell-based, Canis lupus familiaris, Hepatocyte
[16] = Antiproliferative activity p53 -deficient human HCT116 cells after 16 hrs by BrdU proliferation assay; format: functional, cell-based; conditions: HCT-116, 16 h
[17] = Clearance in iv dosed mouse; format: ADME, organism-based; conditions: in vivo
[18] = target: T1, E3 ubiquitin-protein ligase Mdm2; experiment: Binding affinity to human MDM2 by isothermal titration calorimetry
[19] = Drug metabolism in dog hepatocytes assessed as oxidative metabolite M2 formation at 10 uM after 2 hrs by LC/MS analysis; format: ADME, cell-based, Canis lupus familiaris, Hepatocyte
[20] = Oral bioavailability in dog; format: ADME, organism-based, Canis lupus familiaris; conditions: in vivo
[21] = Drug metabolism in cynomolgus monkey hepatocytes assessed as oxidative metabolite M2 formation at 10 uM after 2 hrs by LC/MS analysis; format: ADME, cell-based, Macaca fascicularis, Hepatocyte
[22] = Oral bioavailability in mouse; format: ADME, organism-based; conditions: in vivo
[23] = Drug metabolism in cynomolgus monkey hepatocytes assessed as demethylated metabolite M3 formation at 10 uM after 2 hrs by LC/MS analysis; format: ADME, cell-based, Macaca fascicularis, Hepatocyte
animal or person = conditions: Homo sapiens, HCT-116, po, 240 h
[24] = Drug metabolism in rat hepatocytes treated with 4-(2-((3R,5R,6S)-1-((S)-2-(tert-Butylsulfonyl)-1-cyclopropylethyl)-6-(4-chloro-3-fluorophenyl)-5-(3-chlorophenyl)-3-methyl-2-oxopiperidin-3-yl)acetamido)-2-methoxybenzoic acid at 10 uM after 2 hrs by LC/MS analysis; format: ADME, cell-based, Hepatocyte
[25] = Drug metabolism in human hepatocytes treated with AMG 232 at 10 uM after 2 hrs by LC/MS analysis; format: ADME, cell-based, Hepatocyte
[26] = Drug metabolism in cynomolgus monkey hepatocytes treated with 4-(2-((3R,5R,6S)-1-((S)-2-(tert-Butylsulfonyl)-1-cyclopropylethyl)-6-(4-chloro-3-fluorophenyl)-5-(3-chlorophenyl)-3-methyl-2-oxopiperidin-3-yl)acetamido)-2-methoxybenzoic acid at 10 uM after 2 hrs by LC/MS analysis; format: ADME, cell-based, Macaca fascicularis, Hepatocyte
[27] = Drug metabolism in rat hepatocytes treated with AMG 232 at 10 uM after 2 hrs by LC/MS analysis; format: ADME, cell-based, Hepatocyte
[28] = Drug metabolism in dog hepatocytes treated with AMG 232 at 10 uM after 2 hrs by LC/MS analysis; format: ADME, cell-based, Canis lupus familiaris, Hepatocyte
[29] = Drug metabolism in human hepatocytes treated with 4-(2-((3R,5R,6S)-1-((S)-2-(tert-Butylsulfonyl)-1-cyclopropylethyl)-6-(4-chloro-3-fluorophenyl)-5-(3-chlorophenyl)-3-methyl-2-oxopiperidin-3-yl)acetamido)-2-methoxybenzoic acid at 10 uM after 2 hrs by LC/MS analysis; format: ADME, cell-based, Hepatocyte
[30] = Drug metabolism in dog hepatocytes treated with 4-(2-((3R,5R,6S)-1-((S)-2-(tert-Butylsulfonyl)-1-cyclopropylethyl)-6-(4-chloro-3-fluorophenyl)-5-(3-chlorophenyl)-3-methyl-2-oxopiperidin-3-yl)acetamido)-2-methoxybenzoic acid at 10 uM after 2 hrs by LC/MS analysis; format: ADME, cell-based, Canis lupus familiaris, Hepatocyte
[31] = Drug metabolism in cynomolgus monkey hepatocytes treated with AMG 232 at 10 uM after 2 hrs by LC/MS analysis; format: ADME, cell-based, Macaca fascicularis, Hepatocyte

T1 sequence (Q00987 whole entry): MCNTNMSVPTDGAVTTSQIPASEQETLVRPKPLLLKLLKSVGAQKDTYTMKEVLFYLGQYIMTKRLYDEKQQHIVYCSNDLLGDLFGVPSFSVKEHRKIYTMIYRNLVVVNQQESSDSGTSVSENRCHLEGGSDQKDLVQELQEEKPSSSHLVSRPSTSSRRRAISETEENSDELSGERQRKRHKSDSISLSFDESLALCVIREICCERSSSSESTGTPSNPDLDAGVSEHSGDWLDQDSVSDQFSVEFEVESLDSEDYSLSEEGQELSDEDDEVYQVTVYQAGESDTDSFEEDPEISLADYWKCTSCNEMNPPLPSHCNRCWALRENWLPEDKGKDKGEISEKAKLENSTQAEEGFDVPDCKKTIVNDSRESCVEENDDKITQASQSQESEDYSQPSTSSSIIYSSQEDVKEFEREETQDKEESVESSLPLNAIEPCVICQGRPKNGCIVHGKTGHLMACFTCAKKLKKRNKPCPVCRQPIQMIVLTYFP

Compound: CC(C)(C)S(=O)(=O)C[C@H](C1CC1)N1C(=O)[C@@](C)(CC(=O)Nc2ccccc2C(=O)O)C[C@H](c2cccc(Cl)c2)[C@H]1c1ccc(Cl)cc1
IC50 (SJSA-1 [1]): 45 nM

Compound: CC(C)(C)S(=O)(=O)C[C@H](C1CC1)N1C(=O)[C@@](C)(CC(=O)N[C@H]2C[C@@H](C(=O)O)C2)C[C@H](c2cccc(Cl)c2)[C@H]1c1ccc(Cl)cc1
IC50 (SJSA-1 [1]): 22 nM

Compound: CC(C)(C)S(=O)(=O)C[C@H](C1CC1)N1C(=O)[C@@](C)(CC(=O)O)C[C@H](c2cccc(Cl)c2F)[C@H]1c1ccc(Cl)cc1
IC50 (SJSA-1 [1]): 0.8 nM | IC50 [2]: < 0.1 nM | CLint (Hepatocyte): 27 µL/min/10⁶ cells | IC50 [3]: 6.4 nM

Compound: CC(C)(C)S(=O)(=O)C[C@H](C1CC1)N1C(=O)[C@@](C)(CC(=O)N[C@H]2C[C@H](C(=O)O)C2)C[C@H](c2cccc(Cl)c2)[C@H]1c1ccc(Cl)cc1
IC50 (SJSA-1 [1]): 13.5 nM

Compound: CC(C)(C)S(=O)(=O)C[C@H](C1CC1)N1C(=O)[C@@](C)(CC(=O)N2CC(C(=O)O)C2)C[C@H](c2cccc(Cl)c2)[C@H]1c1ccc(Cl)cc1
IC50 (SJSA-1 [1]): 46 nM

Compound: CC(C)(C)S(=O)(=O)C[C@H](C1CC1)N1C(=O)[C@@](C)(CC(=O)Nc2ccc(CC(=O)O)cc2)C[C@H](c2cccc(Cl)c2)[C@H]1c1ccc(Cl)cc1
IC50 (SJSA-1 [1]): 2.7 nM

inhibition at 3 µM (CYP3A4 [4]): 14% | activity at 0.5 h, 10 µM (CYP3A4 [5]): 72% | activity at 2 µM (PXR (NR1I2)): 0%
Compound: COc1cc(NC(=O)C[C@@]2(C)C[C@H](c3cccc(Cl)c3F)[C@@H](c3ccc(Cl)cc3)N([C@H](CS(=O)(=O)C(C)(C)C)C3CC3)C2=O)ccc1C(=O)O

Compound: CC(C)(C)S(=O)(=O)C[C@H](C1CC1)N1C(=O)[C@@](C)(CC(=O)N[C@H]2CC[C@H](C(=O)O)CC2)C[C@H](c2cccc(Cl)c2)[C@H]1c1ccc(Cl)cc1
IC50 (SJSA-1 [1]): 7.5 nM

Compound: COc1cc(NC(=O)C[C@@]2(C)C[C@H](c3cccc(Cl)c3)[C@@H](c3ccc(Cl)c(F)c3)N([C@H](CS(=O)(=O)C(C)(C)C)C3CC3)C2=O)ccc1C(=O)O
clearance [6]: 11.5 mL/min/kg | Drug metabolism [7]: metabolite_detected | IC50 [8]: 2 nM | Drug metabolism [9]: metabolite_detected | Drug metabolism [10]: metabolite_detected | Activity (Mus musculus): <= 5% | inhibition in vivo at 100 mg/kg [11]: 100% | Activity (SJSA-1 [12]): Active | IC50 [13]: 0.6 nM | Drug metabolism [14]: metabolite_detected | Drug metabolism [15]: metabolite_detected | inhibition at 3 µM (CYP3A4 [4]): < 10% | IC50 [16]: > 25000 nM | clearance [17]: 0.433 mL/min/kg | Kd [18]: 0.038 nM | Drug metabolism [19]: metabolite_detected | activity at 0.5 h, 10 µM (CYP3A4 [5]): 63% | bioavailability [20]: 45% | Drug metabolism [21]: metabolite_detected | bioavailability [22]: 30% | activity at 2 µM (PXR (NR1I2)): 0% | Drug metabolism [23]: metabolite_detected | ED50 (animal or person): 10 mg/kg

Compound: CC(C)(C)S(=O)(=O)C[C@H](C1CC1)N1C(=O)[C@@](C)(CC(=O)O)C[C@H](c2cccc(Cl)c2)[C@H]1c1ccc(Cl)c(F)c1
CLint (Hepatocyte): 26 µL/min/10⁶ cells

Drug metabolism [24]: metabolite_detected | Drug metabolism [25]: metabolite_detected | Drug metabolism [26]: metabolite_detected | Drug metabolism [27]: metabolite_detected | Drug metabolism [28]: metabolite_detected | Drug metabolism [29]: metabolite_detected | Drug metabolism [30]: metabolite_detected | Drug metabolism [31]: metabolite_detected
Compound: CC(C)[C@@H](CS(=O)(=O)C(C)C)N1C(=O)[C@@](C)(CC(=O)OC2O[C@H](C(=O)O)[C@@H](O)[C@H](O)[C@H]2O)C[C@H](c2cccc(Cl)c2)[C@H]1c1ccc(Cl)cc1 (stereo partly specified)

Compound: CC1(C(=O)O)CCN(C(=O)C[C@@]2(C)C[C@H](c3cccc(Cl)c3)[C@@H](c3ccc(Cl)cc3)N([C@H](CS(=O)(=O)C(C)(C)C)C3CC3)C2=O)CC1
IC50 (SJSA-1 [1]): 6.8 nM
